# Non-standard residues stand in square brackets, D forms with d. Residues, ends and D or L forms follow the SMILES beside them. *: point of attachment. 2Nal = N[C@@H](Cc1ccc2ccccc2c1)C(=O)O; Boc = CC(C)(C)OC(=O)*; For = O=C*
# Legend:
# Format in all cases: cell-based
# gastrin receptor [1] = molecular target: T1, gastrin receptor (Cavia porcellus, UniProt H0VZC5); assay: guinea-pig fundus assay for gastrin activity (stomach muscle strips); conditions: 10^-8 M devazepide present, 60 minute equilibration, agonist e.g. pentagastrin, standard errors less than 5%
# T1 construct: Strips of muscle (approximately 2.5 cm by 1 cm) are removed from the proximal area of the stomach; from tissue; host or cells: guinea-pig proximal stomach (fundus) muscle strips
# T1 sequence (H0VZC5 1-426): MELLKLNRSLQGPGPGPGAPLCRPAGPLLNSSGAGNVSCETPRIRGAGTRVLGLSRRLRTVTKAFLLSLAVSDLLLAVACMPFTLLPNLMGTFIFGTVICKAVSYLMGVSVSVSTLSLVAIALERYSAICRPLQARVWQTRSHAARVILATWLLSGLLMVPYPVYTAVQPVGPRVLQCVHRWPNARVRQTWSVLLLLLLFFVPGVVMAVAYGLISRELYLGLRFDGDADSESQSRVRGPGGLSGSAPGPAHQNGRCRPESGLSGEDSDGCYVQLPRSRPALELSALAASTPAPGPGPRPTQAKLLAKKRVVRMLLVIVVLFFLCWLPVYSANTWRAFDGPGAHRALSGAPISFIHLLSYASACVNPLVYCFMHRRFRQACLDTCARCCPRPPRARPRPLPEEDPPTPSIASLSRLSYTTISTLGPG
# Description: The compounds were assayed for gastrin activity using the mouse stomach assay as described by Black, J. W. and Shankley, N. P., Br. J. Pharmacol., 86, 571-579, (1985), and also in the guinea-pig fundus assay, as follows:
# The stomach is removed from a male Dunkin-Hartley guinea-pig (250-500 g), and Krebs solution is injected through a hypodermic needle under the top stomach muscle layer. The composition (mM) of the Krebs solution is as follows: Na^+ 143, K^+ 5.9, Ca^2+ 2.5, Mg^2+ 1.2, Cl^- 128, H2 PO4^- 2.2, HCO3^- 24.9, SO4^2- 1.2, dextrose 10. Strips of muscle (approximately 2.5 cm by 1 cm) are removed from the proximal area of the stomach (one from each side) and tied with cotton thread to isotonic transducers under an initial loading tension of 0.35 g.
# The preparation is immersed in 20 mls of Krebs solution containing 10^-8 M devazepide (25 μl 2×10^-3 M devazepide/100% DMF solution in 5 dm^3 Krebs) and gassed with 95% O2 /5% CO2. The function of the devazepide is to block possible effects at CCK receptors present in the tissue.
# The preparation is washed twice over a 60 minute period then 10 mM KCl is added. At 90 minutes, test compounds (ie. potential antagonists) are added and a further 60 minute equilibration period allowed. After this time, cumulative agonist (e.g. pentagastrin) dose-response curves are constructed.
# gastrin receptor [2] = molecular target: T2, gastrin receptor (Mus musculus, UniProt P56481); assay: mouse stomach assay for gastrin activity (isolated stomach, acid secretion); conditions: for pKB mouse stomach: isolated mouse stomach assay, gastrin antagonism, standard errors less than 5%; for Acid seretion at 10^-5 M test compound, relative to pentagastrin (%): mouse stomach, NS = not significant
# T2 construct: assayed for gastrin activity using the mouse stomach assay; from tissue; host or cells: isolated mouse stomach
# T2 sequence (P56481 1-453): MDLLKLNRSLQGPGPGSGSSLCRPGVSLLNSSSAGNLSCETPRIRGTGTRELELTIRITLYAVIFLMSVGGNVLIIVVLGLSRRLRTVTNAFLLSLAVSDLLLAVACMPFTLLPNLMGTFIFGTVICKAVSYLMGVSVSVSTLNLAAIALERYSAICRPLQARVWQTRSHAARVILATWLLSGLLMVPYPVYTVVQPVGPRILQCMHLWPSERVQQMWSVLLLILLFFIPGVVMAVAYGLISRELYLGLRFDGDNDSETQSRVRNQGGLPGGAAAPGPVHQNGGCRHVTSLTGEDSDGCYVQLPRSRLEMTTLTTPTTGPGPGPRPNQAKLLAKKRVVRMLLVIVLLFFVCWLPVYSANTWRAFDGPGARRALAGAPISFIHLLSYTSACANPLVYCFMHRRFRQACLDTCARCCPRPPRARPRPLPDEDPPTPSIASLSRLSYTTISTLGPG
# Description: The compounds were assayed for gastrin activity using the mouse stomach assay as described by Black, J. W. and Shankley, N. P., Br. J. Pharmacol., 86, 571-579, (1985), and also in the guinea-pig fundus assay, as follows: […]
# [3] = molecular target: T3, cholecystokinin receptors (Cavia porcellus, UniProt Q63931); assay: CCK-antagonist activity in isolated guinea-pig gall-bladder strip preparations; conditions: guinea-pig gall-bladder strips; CCK-8 as agonist; test compound incubated for 60 minutes; standard errors less than 5%
# T3 construct: Isolated, strip preparations were prepared from gall-bladders removed from male Dunkin-Hartley guinea-pigs; from tissue; host or cells: guinea-pig gall-bladder strips
# T3 sequence (Q63931 1-430): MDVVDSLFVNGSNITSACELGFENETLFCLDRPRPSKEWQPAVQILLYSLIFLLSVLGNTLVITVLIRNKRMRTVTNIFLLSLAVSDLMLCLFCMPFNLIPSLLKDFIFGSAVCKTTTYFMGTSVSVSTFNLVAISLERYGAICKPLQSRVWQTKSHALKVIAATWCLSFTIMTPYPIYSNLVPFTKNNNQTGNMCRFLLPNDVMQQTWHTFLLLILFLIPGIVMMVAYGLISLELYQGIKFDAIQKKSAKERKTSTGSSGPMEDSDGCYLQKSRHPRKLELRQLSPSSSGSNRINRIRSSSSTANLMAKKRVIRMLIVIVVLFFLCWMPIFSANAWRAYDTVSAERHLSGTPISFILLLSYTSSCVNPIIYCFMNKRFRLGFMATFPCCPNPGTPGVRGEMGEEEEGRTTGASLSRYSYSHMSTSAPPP
# Description: The compounds of the invention were also assayed for CCK-antagonist activity as follows:
# Isolated, strip preparations were prepared from gall-bladders removed from male Dunkin-Hartley guinea-pigs (250-500 g body weight) according to the method of La Morte, W. W., et al., J.P.E.T., 217, (3), 638-644 (1981).
# The complete gall-bladder is removed and opened along the longitudinal axis. Strips measuring 3 mm in the longitudinal axis and 1 mm in the transverse axis are cut and then tied with cotton to stainless steel wires. The preparation is connected to a GRASS FTO3 isometric transducer under an initial loading tension of 1 g and is immersed in 20 mls of Krebs solution maintained at 37° C. and gassed with 95% O2 /5% CO2. The Krebs solution is as detailed above in connection with the fundus assay, except that the Ca^2+ concentration is decreased to 0.5 mM. After 30 mins the preparation is washed. Drug addition begins after an initial 90 min stabilisation period. Responses are measured as changes in tension from that immediately prior to any drug addition. Single cumulative agonist concentration-effect curves, using CCK-8 as agonist, are obtained on each preparation in the absence and presence of test compound which has been incubated for 60 minutes. The antagonist activity of the test compound is estimated and expressed as the negative logarithm (base 10) of the equilibrium dissociation constants (pK8) using the modifications of standard competitive analysis described by Black et al., Br. J. Pharmacol.,86,571-579, (1985) and Shankley et al., Br. J. Pharmacol.,94,264-274 (1988).
pKB (gastrin receptor [1]),pKB mouse stomach (gastrin receptor [2]),"Acid seretion at 10^-5 M test compound, relative to pentagastrin (%) (gastrin receptor [2])",pKB [3],Kb (gastrin receptor [1]),Kb [3],Molecule
5.6,5.6,22%,–,–,–,"CN(C)C(=O)[C@H](Cc1ccccc1)NC(=O)[C@H](CC(=O)O)NC(=O)[C@H](Cc1ccc2ccccc2c1)NC(=O)[C@H](Cc1c[nH]c2ccccc12)NC(=O)OC(C)(C)C [Example 6, N-t-Butyloxycarbonyl-L-tryptophyl-L-3-(2-naphthyl)alanyl-L-aspartyl-L-phenylalanyl-(N,Ndimethyl)amide] (Boc-W[2Nal]DF-NMe2)"
5.9,5.6,20%,6.9,–,–,N-t-Butyloxycarbonyl-L-tryptophyl-L-3-(2-naphthyl)alanyl-L-aspartylphenethylamide [Example 2]
6.2,–,–,6.8,–,–,"CC(C)(C)OC(=O)N[C@@H](Cc1c[nH]c2ccccc12)C(=O)N[C@@H](Cc1ccc2ccccc2c1)C(=O)N[C@@H](CC(=O)O)C(=O)NCCc1ccc(S(N)(=O)=O)cc1 [Example 49, N-t-Butyloxycarbonyl-L-tryptophyl-L-3-(2-naphthyl)alanyl-L-aspartyl-4-sulphonamidophenethylamide]"
5.8,–,–,6.5,–,–,"CCCCOC(=O)N[C@@H](Cc1c[nH]c2ccccc12)C(=O)N[C@@H](Cc1ccc2ccccc2c1)C(=O)N[C@@H](CC(=O)O)C(=O)NCCc1ccccc1C(F)(F)F [Example 27, N-Butyloxycarbonyl-L-tryptophyl-L-3-(2-naphthyl)alanyl-L-aspartyl-2-trifluoromethylphenethylamide]"
–,–,–,–,5010 nM,631 nM,"NC(=O)[C@H](Cc1ccccc1)NC(=O)[C@H](CC(=O)O)NC(=O)[C@H](Cc1ccc2ccccc2c1)NC(=O)[C@H](Cc1c[nH]c2ccccc12)NC=O [Example 15, N-Formyl-L-tryptophyl-L-3-(2-naphthyl)alanyl-L-aspartyl-L-phenylalaninamide] (For-W[2Nal]DF-NH2)"
5.7,–,–,6.6,–,–,"CC(C)(C)OC(=O)N[C@@H](Cc1c[nH]c2ccccc12)C(=O)N[C@@H](Cc1ccc2ccccc2c1)C(=O)N[C@@H](CC(=O)O)C(=O)NCCc1ccc([N+](=O)[O-])cc1 [Example 30, N-t-Butyloxycarbonyl-L-tryptophyl-L-3-(2-naphthyl)alanyl-L-aspartyl-4-nitrophenethylamide]"
5.4,–,–,6.7,–,–,"Cc1cccc(CCNC(=O)[C@H](CC(=O)O)NC(=O)[C@H](Cc2ccc3ccccc3c2)NC(=O)[C@H](Cc2c[nH]c3ccccc23)NC(=O)OC(C)(C)C)c1 [Example 39, N-t-Butyloxycarbonyl-L-tryptophyl-L-3-(2-naphthyl)alanyl-L-aspartyl-3-methylphenethylamide]"
6.0,–,–,6.5,–,–,"N-t-Butyloxycarbonyl-L-tryptophyl-L-3-(2-naphthyl)alanyl-L-aspartyl-3,4-dimethoxyphenethylamide [Example 41]"
5.7,–,–,7.0,–,–,COc1ccc(CNC(=O)[C@H](CC(=O)O)NC(=O)[C@H](Cc2ccc3ccccc3c2)NC(=O)[C@H](Cc2c[nH]c3ccccc23)NC(=O)OC(C)(C)C)cc1 [Example 51]
6.0,–,–,5.9,–,–,N-t-Butyloxycarbonyl-L-tryptophyl-L-3-(2-naphthyl)alanyl-L-aspartyl-trans- 2-phenylcyclopropylamide [Example 29]
5.9,–,–,7.0,–,–,N-t-Butyloxycarbonyl-L-tryptophyl-L-3-(2-naphthyl)alanyl-L-aspartyl-α-2-phenethylester [Example 63]
5.9,–,–,7.0,–,–,"CC(C)(C)CCNC(=O)[C@H](CC(=O)O)NC(=O)[C@H](Cc1ccc2ccccc2c1)NC(=O)[C@H](Cc1c[nH]c2ccccc12)NC(=O)OC(C)(C)C [Example 64, N-t-Butyloxycarbonyl-L-tryptophyl-L-3-(2-naphthyl)alanyl-L-aspartyl-3,3-dimethylbutylamide]"
5.6,–,–,6.0,–,–,"CC(C)(C)OC(=O)N[C@@H](Cc1c[nH]c2ccccc12)C(=O)N[C@@](C)(Cc1ccc2ccccc2c1)C(=O)N[C@@H](CC(=O)O)C(=O)N[C@@H](Cc1ccccc1)C(N)=O [Example 57, N-t-Butyloxycarbonyl-L-tryptophyl-L-2-methyl-3-(2-naphthyl)alanyl-L-aspartyl-L-phenylalaninamide]"
5.7,–,–,6.3,–,–,N-t-Butyloxycarbonyl-L-tryptophyl-L-3-(2-naphthyl)alanyl-L-aspartyl-1-indanylamide [Example 25]

Molecule,pKB (gastrin receptor [1]),pKB mouse stomach (gastrin receptor [2]),"Acid seretion at 10^-5 M test compound, relative to pentagastrin (%) (gastrin receptor [2])",pKB [3],Kb (gastrin receptor [1]),Kb [3]
"CC(C)(C)OC(=O)N[C@@H](Cc1c[nH]c2ccccc12)C(=O)N[C@@H](Cc1ccc2ccccc2c1)C(=O)N[C@@H](CC(=O)O)C(=O)NCCc1ccc(Cl)cc1 [Example 8, N-t-Butyloxycarbonyl-L-tryptophyl-L-3-(2-naphthyl)alanyl-L-aspartyl-(4-chlorophenethyl)amide]",5.0,5.9,28%,–,–,–
"CC(C)(C)OC(=O)N[C@@H](Cc1c[nH]c2ccccc12)C(=O)N[C@@H](Cc1ccc2ccccc2c1)C(=O)N[C@@H](CC(=O)O)C(=O)N1CCc2ccccc2C1 [Example 26, N-[N-t-Butyloxycarbonyl-L-tryptophyl-L-3-(2-naphthyl)alanyl-L-aspartyl]-1,2,3,4-tetrahydroisoquinolinamide]",5.5,–,–,6.6,–,–
